The test system of experiment [1] is writhing. The experiment is described as follows: Acetic acid mouse writhing test (analgesic effects). In kind it is in vivo, mice (male CD-1). To be noted: for analgesic activity / analgesic/narcotic antagonist profile: in words; for analgesic/narcotic antagonist profile: from writhing ED50 and tail flick AD50 together. As to the method:
(A) Analgesic effects upon mice (acetic acid writhing test).
TEST A. ACETIC ACID MOUSE WRITHING TEST
The analgesic effects of test compounds were determined in mice by use of the acetic acid writhing test described by B. J. R. Whittle, Brit. J. Pharmacol., 22:246 (1964). In this test at least three groups of five male CD-1 mice (18-22 g) each were given subcutaneous doses of the test drug dissolved in either distilled water or distilled water acidified with HCl depending on the solubility of the compound. In all cases, 0.4 milliliter of a 0.5% V/V acetic acid in distilled water solution was administered intraperitoneally 15 minutes post drug. The number of writhes in a 20 min. interval beginning 5 minutes after the acetic acid injection were determined and compared with the number of writhes in control groups which had received only acetic acid.
Percent inhibition of writhing was calculated as: [formula]
The ED50 dose, i.e., the dose required to reduce the number of writhes by 50%, was determined graphically from a plot of % inhibition as a probit versus log dose. Confidence limits of 95% were calculated on the basis of those results falling in the range 16-84% inhibition. See Litchfield, J. T. and Wilcoxon, F., J. Pharmacol. Exp. Ther., 96, 99-113, (1949).

Experiment [2] concerns morphine effect. The experiment is described as follows: Narcotic antagonist activity, modified rat tail flick test. In kind it is in vivo, rats (male albino Wistar). To be noted: for ED50: Rattus norvegicus, ip, read-out: AD50 (the source's name); for narcotic antagonist activity: in words. On the procedure: (B) Narcotic antagonist activity in rats (modified rat tail flick test).
TEST B. EVALUATION OF NARCOTIC ANTAGONIST ACTIVITY
The narcotic antagonist effects of test compounds were determined by a modification of the rat tail flick procedure of Harris and Pierson (J. Pharmacol. Exp. Ther. 143,141 [1964]).
Male albino Wistar rats (100-120 g) were used for this study. A rat's tail is so placed so as to cover a photocell. Heat is applied by a lamp in a reflector with a timer being connected to the lamp and photocell so that the timer goes on when the light is turned on and is turned off when the photocell is uncovered. A rheostat, incorporated into a heating lamp is used to adjust the intensity of the light falling on the tail of the rat such that the rat's control reaction time is from two to four seconds. Animals with a control reaction time outside this range are rejected. The rheostat adjustment is made only if a significant proportion (more than 2 out of every 10 rats) of the reaction times are outside the range of two to four seconds. Groups of five rats were used each time, and two control times were determined at 60 and 30 minutes prior to subcutaneous injection of the drug.
Thirty minutes after the last control run the test drug was given intraperitoneally. This was followed ten minutes later by an ED80 dose of morphine subcutaneously. The animals were retested at 20 minutes after the morphine injection. Control animals were given vehicle and morphine only. The data were calculated as follows: [formula]
The data were plotted on log-probit paper and AD50 values, i.e., the dose required to inhibit the morphine effect by 50% within 95% confidence limits, were determined by the method of Litchfield and Wilcoxon.
In general terms: Hot-plate and tail-flick tests time the reaction to a heat stimulus.

Setting [3] is: Mus musculus, sc, 0.25 h, mice, subcutaneous, acetic acid i.p. 15 minutes post drug, Table I, read-out: ED50.
The mark [4] stands for this setting: rats, test drug i.p. 10 minutes before ED80 dose of morphine s.c., Table I.
Setting [5] is: mice, subcutaneous, acetic acid i.p. 15 minutes post drug, Table I.

Counter-ions that a name gives are not always drawn. Like-named read-outs stand apart in the source and are kept apart here.

In the case of `COc1ccc2c3c1O[C@H]1C(=O)CC[C@H]4[C@@H](C2)N(CC2CC2)CC[C@]314` [TR-5095, 7,8-dihydro-17-cyclopropylmethylnorcodeinone, reference compound], the ED50 in experiment [1] (setting [3]) came out at 17 mg/kg; in experiment [2] (setting [4]), 3.4 mg/kg.
As to `Br.COc1ccc2c3c1O[C@H]1C(=O)CC[C@H]4[C@@H](C2)N(CC2CCC2)CC[C@]314` [TR-5108, 17-Cyclobutylmethyl-4,5α-epoxy-3-methoxymorphinan-6-one Hydrobromide, reference compound], in experiment [1] (setting [3]), the ED50 is 8.8 mg/kg. Also, the AD50 entry in experiment [2] (setting [4]) is given as “IA.3”.
As for `CC[C@H]1CC(=O)[C@@H]2Oc3c(O)ccc4c3[C@@]23CCN(CC2CC2)[C@H](C4)[C@H]13` [TR-5126, 17-Cyclopropylmethyl-4,5α-epoxy-8β-ethyl-3-hydroxymorphinan-6-one], the figures for the ED50 in experiment [1] (setting [3]) and in experiment [2] (setting [4]) were 7.8 mg/kg and 0.25 mg/kg, respectively. Further, in experiment [2], the narcotic antagonist activity result is given as “especially effective narcotic antagonists”.
Consider `COc1ccc2c3c1O[C@H]1C(=O)[C@@H](C)C[C@H]4[C@@H](C2)N(CC2CC2)CC[C@]314` [TR-5394, Hydrochloride], for which the ED50 result in experiment [1] (setting [5]) is “IA 10”; in experiment [2] (setting [4]) it was 1.6 mg/kg.
`COc1ccc2c3c1O[C@H]1C(=O)[C@@H](C)[C@H](C)[C@H]4[C@@H](C2)N(CC2CCC2)CC[C@@]341` [TR-5429, 17-Cyclobutylmethyl-7α,8β-dimethyl-4,5α-epoxy-3-methoxymorphinan-6-one]: the ED50 in experiment [1] (setting [3]) was more than 10 mg/kg; in experiment [2] (setting [4]), approximately 10 mg/kg.
With `COc1ccc2c3c1O[C@H]1C(=O)[C@@H](C)[C@H](C)[C@H]4[C@@H](C2)N(CC2CC2)CC[C@@]341` [TR-5410, 17-Cyclopropylmethyl-7α,8β-dimethyl-4,5-epoxy-3-methoxymorphinan-6-one Hydrochloride], the ED50 was more than 10 mg/kg in experiment [1] (setting [3]) and 0.98 mg/kg in experiment [2] (setting [4]).
Take `CC[C@@H]1CC(=O)[C@@H]2Oc3c(O)ccc4c3[C@@]23CCN(CC2CC2)[C@H](C4)[C@H]13.Cl` [TR-5436, 17-Cyclopropylmethyl-4,5α-epoxy-8α-ethyl-3-hydroxymorphinan-6-one Hydrochloride]: the ED50 in experiment [1] (setting [3]) came to 0.36 mg/kg. For the same molecule, in experiment [1], the analgesic activity entry is “strong analgesic” and the analgesic/narcotic antagonist profile result is on record as “mixed analgesic/narcotic antagonist”. Besides, the ED50 in experiment [2] (setting [4]) came to 4.1 mg/kg. Also, in experiment [2], the narcotic antagonist activity entry is on record as “also exhibits narcotic antagonist activity”.
For the molecule `C=CCN1CC[C@]23c4c5ccc(O)c4O[C@H]2C(=O)C[C@H](CC)[C@H]3[C@H]1C5.Cl` [TR-5266, 17-Allyl-4,5α-epoxy-8β-ethyl-3-hydroxymorphinan-6-one Hydrochloride], in experiment [1], the analgesic activity entry was “except for TR-5266 they demonstrate analgesic activity”. The ED50 result in experiment [1] (setting [5]) is “IA 10”; in experiment [2] (setting [4]) it was 0.58 mg/kg. Also, the narcotic antagonist activity result in experiment [2] is on record as “especially effective narcotic antagonists”.
`C[C@@H]1[C@H]2[C@H]3Cc4ccc(O)c5c4[C@@]2(CCN3CC2CCC2)[C@@H](O5)C(=O)[C@H]1C` [TR-5430, 17-Cyclobutylmethyl-7α,8β-dimethyl-4,5α-epoxy-3-hydroxymorphinan-6-one]: the ED50 in experiment [1] (setting [3]) turned out to be 5.8 mg/kg; in experiment [2] (setting [4]) it was 2.5 mg/kg. In addition, the analgesic/narcotic antagonist profile result in experiment [1] was “mixed analgesics/narcotic antagonists”.
For `C[C@H]1C[C@H]2[C@H]3Cc4ccc(O)c5c4[C@@]2(CCN3CC2CC2)[C@@H](O5)C1=O` [TR-5402, 17-Cyclopropylmethyl-4,5α-epoxy-3-hydroxy-7α-methylmorphinan-6-one], the ED50 in experiment [1] (setting [3]) is 0.42 mg/kg; in experiment [1] (Mus musculus, sc, agonist-antagonist potency, unit inferred, read-out: ED50), 0.42 mg/kg; in experiment [2] (agonist-antagonist potency, unit inferred), 1.63 mg/kg. In addition, the analgesic/narcotic antagonist profile result in experiment [1] is “mixed analgesics/narcotic antagonists”.
On to `CC[C@@H]1CC(=O)[C@@H]2Oc3c(OC)ccc4c3[C@@]23CCN(CC2CC2)[C@H](C4)[C@H]13.O=C(O)C(O)C(O)C(=O)O` [TR-5427, 17-Cyclopropylmethyl-4,5α-epoxy-8α-ethyl-3-methoxymorphinan-6-one Tartrate], for which the ED50 in experiment [1] (setting [3]) and in experiment [2] (setting [4]) was more than 10 mg/kg in each case.
With `CC[C@H]1CC(=O)[C@@H]2Oc3c(O)ccc4c3[C@@]23CCN(CC2CCCO2)[C@H](C4)[C@H]13.Cl` (stereo partly drawn) [TR-5271, 4,5α-Epoxy-8β-ethyl-3-hydroxy-17-tetrahydrofurfuryl-morphinan-6-one Hydrochloride], the values for the ED50 in experiment [1] (setting [3]) and in experiment [2] (setting [4]) were 1.06 mg/kg and 1.8 mg/kg, respectively. In experiment [1], the analgesic activity entry was “especially effective analgesics”.
As to `C[C@@H]1[C@H]2[C@H]3Cc4ccc(O)c5c4[C@@]2(CCN3CC2CC2)[C@@H](O5)C(=O)[C@H]1C.Cl` [TR-5416, 17-Cyclopropylmethyl-7α,8β-dimethyl-4,5α-epoxy-3-hydroxymorphinan-6-one Hydrochloride], the analgesic/narcotic antagonist profile result in experiment [1] is “pure narcotic antagonist”. Also, the results for the ED50 result in experiment [1] (setting [5]) and in experiment [2] (setting [4]) were “IA 10” and 0.57 mg/kg, respectively.
Regarding `CC[C@H]1CC(=O)[C@@H]2Oc3c(OC)ccc4c3[C@@]23CCN(CC2CC2)[C@H](C4)[C@H]13.Cl` [TR-5109, 17-Cyclopropylmethyl-4,5α-epoxy-8β-ethyl-3-methoxymorphinan-6-one Hydrochloride], the ED50 in experiment [1] (setting [3]) is 2.1 mg/kg; in experiment [2] (setting [4]) it was 0.78 mg/kg. Further, the analgesic activity result in experiment [1] is recorded as “especially effective analgesics”. For the same molecule, the narcotic antagonist activity result in experiment [2] was “especially effective narcotic antagonists”.
In the case of `CC[C@@H]1CC(=O)[C@@H]2Oc3c(O)ccc4c3[C@@]23CCN(CC2CCC2)[C@H](C4)[C@H]13.Cl` [TR-5437, 17-Cyclobutylmethyl-4,5α-epoxy-8α-ethyl-3-hydroxymorphinan-6-one Hydrochloride], the values for the ED50 in experiment [1] (setting [3]) and in experiment [2] (setting [4]) were 0.15 mg/kg and more than 10 mg/kg, respectively. In addition, the analgesic/narcotic antagonist profile result in experiment [1] is listed as “pure analgesic”.
As for `CC[C@@H]1CC(=O)[C@@H]2Oc3c(OC)ccc4c3[C@@]23CCN(CC2CCC2)[C@H](C4)[C@H]13.O=C(O)C(O)C(O)C(=O)O` [TR-5428, 17-Cyclobutylmethyl-4,5α-epoxy-8α-ethyl-3-methoxymorphinan-6-one Tartrate], the ED50 entry in experiment [1] (setting [5]) is recorded as “IA 10”. The AD50 result in experiment [2] (setting [4]) is reported as “IA 10”.
Turning to `CC[C@H]1CC(=O)[C@@H]2Oc3c(O)ccc4c3[C@@]23CCN(CC2CCC2)[C@H](C4)[C@H]13` [TR-5115, 17-Cyclobutylmethyl-4,5α-epoxy-8β-ethyl-3-hydroxymorphinan-6-one], the ED50 in experiment [1] (setting [3]) stood at 9.2 mg/kg; in experiment [2] (setting [4]) it was 0.52 mg/kg. Also, the narcotic antagonist activity result in experiment [2] was “especially effective narcotic antagonists”.
In the case of `C[C@H]1C[C@H]2[C@H]3Cc4ccc(O)c5c4[C@@]2(CCN3CC2CCC2)[C@@H](O5)C1=O` [TR-5404, 17-Cyclobutylmethyl-4,5α-epoxy-3-hydroxy-7α-methylmorphinan-6-one Hydrochloride], the ED50 came out at 0.3 mg/kg in experiment [1] (setting [3]) and 13.2 mg/kg in experiment [2] (setting [4]).
Consider `C=CCN1CC[C@]23c4c5ccc(OC)c4O[C@H]2C(=O)C[C@H](CC)[C@H]3[C@H]1C5.Cl` [TR-5256, 17-Allyl-4,5α-epoxy-8β-ethyl-3-methoxymorphinan-6-one Hydrochloride], for which, in experiment [1], the analgesic/narcotic antagonist profile result is listed as “some mixed analgesic narcotic antagonist activity but is not particularly potent in either respect”. In addition, in experiment [2] (setting [4]), the ED50 stood at 5.6 mg/kg.

For the origin of these results see patent US4272541A, “7,8 and 7-8 Substituted 4,5α-epoxymorphinan-6-one compounds, and methods of treating pain and drug dependence with them” (Miles Laboratories, Inc., priority 1979, dated 1981).
